Experiment: xn = mol fraction of the nth substance listed
Conditions: 101 kPa, Liquid, Vibrating tube method

CCCC[N+](CCCC)(CCCC)CCCC.[Br-] [tetrabutylammonium bromide] + O
mass density [kg/m3]
Conditions | 276.15 K | 277.15 K | 278.15 K | 279.18 K | 280.15 K | 281.15 K | 282.15 K
x1 = 0.0009 | 1001.35 | 1001.35 | 1001.32 | 1001.28 | 1001.23 | 1001.16 | 1001.09
x1 = 0.0018 | 1002.75 | 1002.73 | 1002.69 | 1002.65 | 1002.58 | 1002.49 | 1002.4
x1 = 0.00359 | 1005.6 | 1005.52 | 1005.47 | 1005.39 | 1005.29 | 1005.18 | 1005.07
x1 = 0.00715 | 1011.37 | 1011.23 | 1011.09 | 1010.96 | 1010.78 | 1010.61 | 1010.44
x1 = 0.01069 | 1017.09 | 1016.88 | 1016.66 | 1016.45 | 1016.22 | 1015.98 | 1015.72
x1 = 0.01421 | 1022.49 | 1022.16 | 1021.91 | 1021.63 | 1021.32 | 1020.99 | 1020.68
x1 = 0.0177 | 1027.72 | 1027.3 | 1026.96 | 1026.61 | 1026.22 | 1025.83 | –
x1 = 0.02202 | 1033.53 | 1033.01 | 1032.57 | 1032.11 | 1031.62 | 1031.18 | –
x1 = 0.02631 | 1038.46 | 1037.94 | 1037.41 | 1036.89 | 1036.32 | 1035.8 | –
x1 = 0.03056 | 1042.53 | 1040.98 | 1040.41 | 1039.82 | 1039.11 | 1038.63 | –
x1 = 0.03478 | – | 1045.39 | 1044.76 | 1044.11 | 1043.44 | 1042.82 | –
x1 = 0.0431 | – | 1050.63 | 1049.93 | 1049.24 | 1048.51 | 1048.23 | –
x1 = 0.05128 | – | 1054.86 | 1054.13 | 1053.4 | 1052.65 | 1051.94 | –
x1 = 0.07499 | – | 1060.81 | 1060.07 | 1059.33 | 1058.55 | 1057.83 | –
